Data set [1] has as its system porcine brain endothelial cell (PBEC) monolayers. Kind of data set: Apical to basolateral transport of milk peptides across porcine brain endothelial cell (PBEC) monolayers, blood-brain barrier model. It counts as in vitro ADME. To be noted: 2.5 h. The protocol:
Capillaries were isolated from the brain cortices of domestic pigs 5–6 months old as previously described. PBECs were cultured by plating the capillaries in T75 flasks coated with collagen IV (500 µg/mL) and fibronectin (100 µg/mL) in DMEM-F12 medium, supplemented with 10% plasma-derived serum (First Link, Wolverhampton, UK), heparin (15 U), 100 units/mL of penicillin and 100 µg/mL of streptomycin (PBEC growth medium), and cultured in an incubator with humidified 5% CO2/95% air at 37 °C. Puromycin (4 µg/mL) was added to the growth medium for the first three days to obtain a pure culture of PBECs.
Astrocyte conditioned medium was collected every third day from primary rat astrocytes, sterile filtered and frozen until use. Isolation of primary rat astrocytes and preparation of astrocyte conditioned media were carried out as described in [20].
PBECs were grown until 70–80% confluency as described above and then passaged onto polyester culture inserts with a pore size of 0.4 μm and a growth area of 1.12 cm^2 (Costar, Corning, NY, USA) at a density of 1.1 × 10^5 cells/cm^2 in the PBEC growth medium. In the basolateral chamber, the medium consisted of 1 mL of PBEC growth medium and 0.5 mL of astrocyte conditioned medium. The medium was supplemented with differentiation factors: 550 nM of hydrocortisone, 250 μM of 8-(4-chlorophenylthio)adenosine-3′,5′-cyclic monophosphate (cAMP) and 17.5 μM of RO-201724 two days after seeding. The next day, the integrity of the PBEC monolayer was confirmed by measuring the TEER. Only PBEC monolayers with TEER values higher than 800 Ω cm^2 were used for the transport analysis.
Following the TEER value measurement, the Caco-2 and PBEC monolayers were gently washed twice with phosphate-buffered saline, and the transport medium (Hanks’ Balanced Salt solution supplemented with 10 mM of HEPES) was added to the apical and basolateral compartments. The inserts were incubated for 15 min or 2.5 h with the purified milk peptides (0.1 mg/mL) or the synthetic PIGSENSEKTTMPLW peptide (2 µg/mL), after which medium from the apical and basolateral compartments were collected for liquid chromatography tandem mass spectrometry (LC-MS/MS) analysis. Inserts incubated with a medium without peptides served as the control in the transport experiments. Membrane integrity was validated by addition of D-[1-^14C]-Mannitol (3.5 µM, 56.8 mCi/mmol) (Perkin Elmer, Waltham, MA, USA) to the upper chamber of the culture inserts with or without milk peptides for 2.5 h. The passive permeability experiments were performed on four or five individual culture inserts. Basolateral samples were mixed with Ultima Gold liquid scintillation fluid (Perkin Elmer) and counted in a Tri-Carb 2810 TR scintillation counter (Perkin Elmer). The apparent permeability coefficient (Papp, cm/s) was determined as Papp = (dQ/dt)/(AC0) where dQ/dt is the steady state flux (cpm/s), A is the surface area of the cell culture insert membrane and C0 is the initial concentration in the apical compartment (cpm/mL).
LC-MS/MS analysis was performed on a TripleTOF 6600 mass spectrometer equipped with an Exigent nanoLC 415 system (AB Sciex, Les Ulis, France). All samples were micro-purified using 3 M Empore C18 discs packed in pipette tips. The lyophilized samples were dissolved in 0.1% formic acid, injected on a trap column (2 cm × 100 µm inner diameter) and separated on an analytical column packed in-house in a pulled emitter (15 cm × 75 µm inner diameter). All columns were packed with ReproSil-Pur C18-AQ 3 µm resin (courtesy of Dr. Marisch, Ammerbuch-Entringen, Germany). […]

Data set [2] deals with pepsin, then trypsin, chymotrypsin and elastase. Kind of data set: In vitro simulation of gastrointestinal digestion. It counts as in vitro ADME. To be noted: 37 °C. Here is the method:
The purified milk peptides and the synthesized PIGSENSEKTTMPLW and […] peptides were subjected to digestion, essentially as described in [5, 26] with few modifications. The peptides were dissolved in 0.15 M of NaCl with a pH of 2.5 at a concentration of 1 mg/mL and incubated with pepsin from porcine gastric mucosa in a 1:100 w/w enzyme to substrate ratio for 60 min at 37 °C. Before digestion with pancreatic proteases, the sample was lyophilized and washed twice in deionized water. Trypsin and chymotrypsin from a bovine pancreas (Worthington Biochemical Corporation, NJ, USA) (1:100 w/w) and elastase (Worthington) (1:500 w/w) were added in 50 mM of ammonium bicarbonate buffer (pH = 7.6) and the mixture was incubated for 60 min at 37 °C. In digests of the synthesized peptides, aliquots were sampled and analyzed after 5 min, 30 min, 60 min and 270 min incubation with the intestinal enzymes. Bovine milk osteopontin was purified as previously described and incubated with the digestive proteases to validate their activity. The digested milk peptides were separated by RP-HPLC on an Aeris C4 widepore column (Phenomenex, Værløse, Denmark) connected to a Shimadzu (Kyoto, Japan) HPLC system. The peptides were separated in 0.1% TFA (buffer A) and eluted with a gradient of 60% acetonitrile in 0.1% TFA (buffer B) at 40 °C. The gradient was developed over 59 min (0–5 min: 0% buffer B; 5–49 min: 0–98% buffer B; 49–59 min: 98% buffer B) at a flow rate of 0.85 mL/min. The peptides were detected by measuring the absorbance at 226 nm and analyzed by matrix-assisted laser desorption ionization time-of-flight mass spectrometry (MALDI-MS).
MALDI-MS was performed using a Bruker Autoflex III instrument (Bruker Daltonics, Bremen, Germany). The analysis was performed using a saturated solution of α-cyano-4-hydroxycinnamic acid. The instrument was operated in reflected positive ionization mode and calibrated in the mass range of 1000 to 3200 Da using a peptide calibration standard (Bruker Daltonics, Bremen, Germany). The theoretical peptide masses were calculated using the General Protein/Mass Analysis for Windows software (Lighthouse Data, Odense, Denmark).

No end group written: not given here.

With PIGSENSEKTTMPLW [PIGSENSEKTTMPLW], the “Peptide identified in the basal compartment (brain side) of the PBEC BBB model (transported)” value in data set [1] (primary PBEC on polyester inserts 0.4 μm, astrocyte conditioned medium, TEER higher than 800 Ω cm^2, A-B, mix of 192 milk peptides 0.1 mg/mL apical, HBSS + 10 mM HEPES, LC-MS/MS, five independent studies, αS1 peptide 'or' its truncated peptides stated collectively) is given as “identified in all experiments”. The “Fate of synthetic peptide during transport over PBEC monolayers” value in data set [1] (synthetic peptide 2 µg/mL apical, LC-MS/MS of basal medium) is “cleaved by carboxypeptidases during the transport”. For the same sequence, in data set [2] (1 mg/mL, pepsin 1:100 w/w, 0.15 M NaCl pH 2.5, 60 min, chymotrypsin 1:100 and elastase 1:500 w/w, 50 mM ammonium bicarbonate pH 7.6, 37 °C, sampled 5, 30, 60 and 270 min, MALDI-MS (osteopontin: SDS-PAGE)), the “Stability of the synthetic peptide / control in simulated gastrointestinal digestion” value is “observed even after 270 min of digestion”. In addition, the “Resistance to simulated gastrointestinal digestion within the purified milk peptide mix” value in data set [2] (purified milk peptides 1 mg/mL, pepsin 1:100, pH 2.5, 60 min, chymotrypsin 1:100, elastase 1:500, pH 7.6, 60 min, RP-HPLC fractions, MALDI-MS, before and after digestion) is “observed”.

Source of the values: article PMC7602804 (Nutrients, 2020).
